Laboratory results: patent US7473688B2, “Indolobenzazepine HCV NS5B inhibitors” (Bristol-Myers Squibb Company, priority 2005, dated 2009)
Like-named read-outs stand apart in the source and are kept apart here.

What was measured:
HCV NS5B = biological target: T1, HCV NS5B (Hepatitis C virus genotype 1b, UniProt Q9WMX2); assay: HCV NS5B RdRp enzyme assay (preincubation protocol); type: biochemical; details: read-out: IC50*
T1 construct: The protein was expressed with an 18 amino acid C-terminal truncation to enhance the solubility; made in house; host or cells: E. coli BL21 (DE3), pET21a
T1 sequence (Q9WMX2 2420-2992): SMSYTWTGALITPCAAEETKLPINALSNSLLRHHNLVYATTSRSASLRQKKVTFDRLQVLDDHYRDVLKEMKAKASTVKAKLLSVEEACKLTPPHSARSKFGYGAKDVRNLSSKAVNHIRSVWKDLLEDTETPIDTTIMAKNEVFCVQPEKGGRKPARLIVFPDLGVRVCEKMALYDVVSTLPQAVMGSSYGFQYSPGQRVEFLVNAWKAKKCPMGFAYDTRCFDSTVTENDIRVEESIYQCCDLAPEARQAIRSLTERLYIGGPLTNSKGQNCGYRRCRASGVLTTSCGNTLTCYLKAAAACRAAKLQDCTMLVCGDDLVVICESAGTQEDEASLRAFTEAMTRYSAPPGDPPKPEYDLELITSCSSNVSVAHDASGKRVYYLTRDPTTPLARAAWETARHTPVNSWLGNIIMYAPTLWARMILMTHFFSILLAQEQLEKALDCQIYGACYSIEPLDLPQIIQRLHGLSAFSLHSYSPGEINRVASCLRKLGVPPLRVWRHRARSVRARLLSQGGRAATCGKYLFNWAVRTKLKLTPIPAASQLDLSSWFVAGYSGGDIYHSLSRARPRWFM
In short: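 Preincubation format: enzyme (14 nM, genotype 1b, 18-residue C-terminal truncation) meets diluted compound first; reaction started with bead-bound biotinylated dT12 primer, polyA template 0.2 nM and 0.29 μM 3H-UTP. Run 4 h, 30 °C in Hepes pH 7.5; scintillation proximity signal; IC50 fitted from seven inhibitor levels.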

HCV replicon = HCV replicon FRET assay; type: cell-based; details: Hepatitis C virus, FRET assay, read-out: EC50*
In short: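 HCV replicon cells, with or without Renilla luciferase reporter, incubated with titrated compounds at 37 °C; Alamar blue read for cytotoxicity. NS3 protease activity read from lysates with 20 μM EDANS/DABCYL FRET peptide (340/490 nm, kinetic), or by Dual-Glo luciferase. Background from highest protease-inhibitor wells; EC50 = 50% signal reduction.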

Row | Compound | IC50 (HCV NS5B; Table 1a) [nM] | EC50 (HCV replicon; Table 1a) [nM] | IC50 (HCV NS5B; Table 1b) [nM] | EC50 (HCV replicon; Table 1b) [nM]
1 | COc1ccc2c(c1)C=C(C(=O)N(C)C1CCOCC1)Cn1c-2c(C2CCCCC2)c2ccc(C(=O)NS(=O)(=O)N(C)C)cc21 | 10 to 1000 | > 120 | – | –
2 | COc1ccc2c(c1)C=C(C(=O)NCc1nccs1)Cn1c-2c(C2CCCCC2)c2ccc(C(=O)NS(=O)(=O)N(C)C)cc21 | 10 to 1000 | 30 to 1000 | – | –
3 | COc1ccc2c(c1)C=C(C(=O)N(CC(=O)O)CC(=O)O)Cn1c-2c(C2CCCCC2)c2ccc(C(=O)NS(=O)(=O)N(C)C)cc21 | – | – | 20 to 1000 | > 10000
4 | COc1ccc2c(c1)C=C(C(=O)N(C)[C@H](C(=O)O)C(C)C)Cn1c-2c(C2CCCCC2)c2ccc(C(=O)NS(=O)(=O)N(C)C)cc21 | – | – | < 20 | 30 to 1000
5 | CCN(C)C(=O)NC1Cc2cc(OC)ccc2-c2c(C3CCCCC3)c3ccc(C(=O)NS(=O)(=O)N(C)C)cc3n2C1 (stereo not drawn) | – | – | 20 to 1000 | 30 to 1000
6 | COc1ccc2c(c1)CC(NC(=O)N(C)CCN(C)C)Cn1c-2c(C2CCCCC2)c2ccc(C(=O)NS(=O)(=O)N(C)C)cc21 (stereo not drawn) | – | – | 20 to 1000 | 30 to 1000
7 | COc1ccc2c(c1)CC(NC(N)=O)Cn1c-2c(C2CCCCC2)c2ccc(C(=O)NS(=O)(=O)N(C)C)cc21 (stereo not drawn) | – | – | 20 to 1000 | 30 to 1000
8 | COCCNC(=O)CN(C)C(=O)NC1Cc2cc(OC)ccc2-c2c(C3CCCCC3)c3ccc(C(=O)NS(=O)(=O)N(C)C)cc3n2C1 (stereo not drawn) | – | – | 20 to 1000 | 30 to 1000
9 | COc1ccc2c(c1)CC(NC(=O)N(C)CC(=O)NC(C)C)Cn1c-2c(C2CCCCC2)c2ccc(C(=O)NS(=O)(=O)N(C)C)cc21 (stereo not drawn) | – | – | 20 to 1000 | 30 to 1000
10 | COc1ccc2c(c1)CC(NC(=O)N(C)CC1CCOCC1)Cn1c-2c(C2CCCCC2)c2ccc(C(=O)NS(=O)(=O)N(C)C)cc21 (stereo not drawn) | – | – | 20 to 1000 | 30 to 1000
11 | COc1ccc2c(c1)CC(NC(=O)N(C)CC1CCCCO1)Cn1c-2c(C2CCCCC2)c2ccc(C(=O)NS(=O)(=O)N(C)C)cc21 (stereo not drawn) | – | – | 20 to 1000 | 30 to 1000
12 | COc1ccc2c(c1)CC(NC(=O)N(C)CC(N)=O)Cn1c-2c(C2CCCCC2)c2ccc(C(=O)NS(=O)(=O)N(C)C)cc21 (stereo not drawn) | – | – | 20 to 1000 | 30 to 1000
13 | COc1ccc2c(c1)CC(NC(=O)N1CCC(C(N)=O)C1)Cn1c-2c(C2CCCCC2)c2ccc(C(=O)NS(=O)(=O)N(C)C)cc21 (stereo not drawn) | – | – | 20 to 1000 | 30 to 1000
14 | COc1ccc2c(c1)CC(NC(=O)N(C)CC(=O)NC1CC1)Cn1c-2c(C2CCCCC2)c2ccc(C(=O)NS(=O)(=O)N(C)C)cc21 (stereo not drawn) | – | – | 20 to 1000 | 30 to 1000
15 | COc1ccc2c(c1)CC(NC(=O)N1CC(OC)C1)Cn1c-2c(C2CCCCC2)c2ccc(C(=O)NS(=O)(=O)N(C)C)cc21 (stereo not drawn) | – | – | 20 to 1000 | 30 to 1000
16 | COc1ccc2c(c1)CC(NC(=O)N(C)CC(=O)N1CCN(C)CC1)Cn1c-2c(C2CCCCC2)c2ccc(C(=O)NS(=O)(=O)N(C)C)cc21 (stereo not drawn) | – | – | 20 to 1000 | 30 to 1000
17 | COc1ccc2c(c1)CC(NC(=O)N1CC(O)C1)Cn1c-2c(C2CCCCC2)c2ccc(C(=O)NS(=O)(=O)N(C)C)cc21 (stereo not drawn) | – | – | 20 to 1000 | 30 to 1000
18 | COc1ccc2c(c1)CC(NC(=O)N1C[C@@H](C)N(C)[C@@H](C)C1)Cn1c-2c(C2CCCCC2)c2ccc(C(=O)NS(=O)(=O)N(C)C)cc21 (stereo partly drawn) | – | – | 20 to 1000 | 30 to 1000
19 | COc1ccc2c(c1)C=C(C(=O)N1CCOC(CF)C1)Cn1c-2c(C2CCCCC2)c2ccc(C(=O)NS(=O)(=O)N(C)C)cc21 (stereo not drawn) | – | – | 20 to 1000 | 30 to 1000
20 | COc1cccc2c1C=C(C(=O)N1CCOC(CF)C1)Cn1c-2c(C2CCCCC2)c2ccc(C(=O)NS(=O)(=O)N(C)C)cc21 (stereo not drawn) | – | – | 20 to 1000 | 30 to 1000
21 | COc1ccc2c(c1)C=C(C(=O)N1CCN(c3cnccn3)CC1)Cn1c-2c(C2CCCCC2)c2ccc(C(=O)NS(=O)(=O)N(C)C)cc21 | – | – | 20 to 1000 | 30 to 1000
22 | COc1ccc2c(c1)CC(C(=O)N1CCN(C(=O)C(C)(C)O)CC1)Cn1c-2c(C2CCCCC2)c2ccc(C(=O)NS(=O)(=O)N(C)C)cc21 (stereo not drawn) | – | – | 20 to 1000 | 30 to 1000
23 | COc1ccc2c(c1)C=C(C(=O)N1CCN(C(=O)C3(O)CC3)CC1)Cn1c-2c(C2CCCCC2)c2ccc(C(=O)NS(=O)(=O)N(C)C)cc21 | – | – | 20 to 1000 | 30 to 1000
24 | COc1ccc2c(c1)C=C(C(=O)N1CC(C(=O)N(C)C)C1)Cn1c-2c(C2CCCCC2)c2ccc(C(=O)NS(=O)(=O)N(C)C)cc21 | – | – | 20 to 1000 | 30 to 1000
25 | COc1ccc2c(c1)C=C(C(=O)N1CC(C(=O)N3CCOCC3)C1)Cn1c-2c(C2CCCCC2)c2ccc(C(=O)NS(=O)(=O)N(C)C)cc21 | – | – | 20 to 1000 | 30 to 1000
26 | COc1ccc2c(c1)CC(C(=O)N1CCN(C(=O)C3(O)CC3)CC1)Cn1c-2c(C2CCCCC2)c2ccc(C(=O)NS(=O)(=O)N(C)C)cc21 (stereo not drawn) | – | – | 20 to 1000 | 30 to 1000
27 | COc1ccc2c(c1)C=C(C(=O)N[C@@](C)(CO)C(=O)N(C)C)Cn1c-2c(C2CCCCC2)c2ccc(C(=O)NS(=O)(=O)N(C)C)cc21 | – | – | 20 to 1000 | 30 to 1000
